Data taken from US20250314644A1, “METHODS COMPRISING DETECTION OF ADP-HEPTOSE” (CHILDREN'S HOSPITAL MEDICAL CENTER, priority 2023, published 2025).

Tests used:
[1] = tested on: Dnmt3a^−/− HSCs; assay: NF-κB activation in vitro (NF-κB^GFP reporter, immunoblot); type: cell-based, mouse; settings: NF-κB^GFP HSCs compared to WT
Text: (§1) Because intestinal epithelial injury and dysbiosis mediate the expansion of Dnmt3a-mutant pre-leukemic cells was observed, Applicant evaluated whether this occurs because of ADP-heptose-mediated ALPK1 signaling. Indeed, Dnmt3a^−/− HSCs were exquisitely sensitive to ADP-heptose stimulation in vitro. […] Activation of NF-κB in Dnmt3a^−/− HSPCs occurred following treatment with ADP-heptose (FIG. 3L). […] Constitutive combined activation of NF-κB and MAPK, such as during chronic inflammation with IL-1β, promotes differentiation of HSCs at the expense of self-renewal, leading to depletion of the HSC population.
(§2) Dnmt3a^f/f and MxCre^+ (obtained from H. Lee Grimes Laboratory, CCHMC)^33, Alpk1^−/− (11 bp deletion in exon 3, C57BL/6N-Alpk1^em1Fsha/J, Cat no. 032561, Jackson Laboratory), Tifa^−/− (gift from Jun-Ichiro Inoue, University of Tokyo, Japan), and UBC-GFP (C57BL/6-Tg(UBC-GFP)30Scha/J, Cat no. 004353, Jackson Laboratory) mice were maintained on CD45.2+C57BL/6 background. NF-kB^GFP reporter mice were generously provided by C. Jobin. Throughout the study, CD45.1+B6.SJL-Ptprc^a (BoyJ) mice were used as recipients for BM transplantation experiments. […] Mice were bred, housed and monitored daily by laboratory staff and veterinary personnel for health and activity. […]
(§3) Protein concentration was evaluated by bicinchoninic acid (BCA) assay (Pierce, Cat #23225). […]

[2] = tested on: WT HSPCs; assay: as above; type: cell-based, mouse
Text: as §1, §2, §3

## Nc1ncnc2c1ncn2[C@@H]1O[C@H](COP(=O)(O)OP(=O)(O)O[C@@H]2O[C@H]([C@H](O)CO)[C@@H](O)[C@H](O)[C@@H]2O)[C@@H](O)[C@H]1O [ADP-heptose, ADP-D-glycero-β-D-manno-heptose]
[1]
  NF-κB activation (NF-κB^GFP reporter): robust and sustained NF-κB activation
[2]
  concentration of ADP-heptose required to induce NF-κB activation: > 1 µM
